# In ChEMBL document CHEMBL4393657, “Tetrazole hybrids and their antifungal activities” (2019):
# What was measured:
# Assay type in all cases: functional
# Candida albicans [1] = assay: Antifungal activity against Candida albicans assessed as reduction in fungal cell growth incubated for 24 and 72 hrs by cup plate method
# Aspergillus flavus = assay: Antifungal activity against Aspergillus flavus assessed as reduction in fungal cell growth incubated for 24 and 72 hrs by cup plate method
# Fusarium oxysporum = assay: Antifungal activity against Fusarium oxysporum assessed as reduction in fungal cell growth incubated for 24 and 72 hrs by cup plate method
# Candida albicans [2] = assay: In vivo antifungal activity against Candida albicans TA infected in CDF-1 mouse dosed orally assessed as survival of mouse; settings: po
# Candida albicans [3] = assay: Antifungal activity against Candida albicans assessed as reduction in fungal cell growth incubated for 48 hrs by broth microdilution susceptibility method
# Nakaseomyces glabratus = assay: Antifungal activity against Candida glabrata assessed as reduction in fungal cell growth incubated for 48 hrs by broth microdilution method
# Aspergillus niger = assay: Antifungal activity against Aspergillus niger assessed as reduction in fungal cell growth incubated for 72 hrs by broth microdilution method
# Candida parapsilosis = assay: Antifungal activity against Candida parapsilosis ATCC 22019 assessed as reduction in fungal cell growth incubated for 48 hrs by broth microdilution method; settings: Lodderomyces parapsilosis, ATCC 22019, 48 h
# Candida albicans [4] = assay: Antifungal activity against Candida albicans assessed as reduction in fungal cell growth incubated for 48 hrs by broth microdilution method
# Candida tropicalis = assay: Antifungal activity against Candida tropicalis assessed as reduction in fungal cell growth incubated for 48 hrs by broth microdilution method
# Cryptococcus neoformans = assay: Antifungal activity against Cryptococcus neoformans LA314 assessed as reduction in fungal cell growth incubated for 48 hrs by broth microdilution method; settings: LA314, 48 h
# Pichia kudriavzevii = assay: Antifungal activity against Candida krusei assessed as reduction in fungal cell growth incubated for 48 hrs by broth microdilution method
SMILES,MIC (Candida albicans [1]) [µg/mL],MIC (Aspergillus flavus) [µg/mL],MIC (Fusarium oxysporum) [µg/mL],MIC (Nakaseomyces glabratus) [µg/mL],MIC (Aspergillus niger) [µg/mL],MIC (Candida parapsilosis) [µg/mL],MIC (Candida albicans [4]) [µg/mL],MIC (Candida tropicalis) [µg/mL],MIC (Cryptococcus neoformans) [µg/mL],MIC (Pichia kudriavzevii) [µg/mL],also measured
O=C(/C=C/c1cc2ccccc2n2nnnc12)c1cc(Br)ccc1O,25 to 100,25 to 100,25 to 100,,,,,,,,
C[C@@H](n1nnn(-c2ccc(C(F)(F)F)cc2)c1=O)[C@](O)(Cn1cncn1)c1ccccc1,,,,,,,,,,,ED50 (Candida albicans [2]): 0.71 to 2 mg/kg
CCOC(=O)C(C#N)C(c1cc2c(C)cccc2n2nnnc12)P(=O)(OCC)OCC (stereo not given),10 to 25,10 to 25,10 to 25,,,,,,,,
Cc1cccc2c1cc(/C=C/C(=O)c1cc(Br)ccc1O)c1nnnn12,25 to 100,25 to 100,25 to 100,,,,,,,,
CCOC(=O)C(C#N)C(c1cc2ccccc2n2nnnc12)P(=O)(OCC)OCC (stereo not given),10 to 25,10 to 25,10 to 25,,,,,,,,
COc1ccc2cc(C3CC(c4cc(Br)ccc4O)=NO3)c3nnnn3c2c1 (stereo not given),25,25,25 to 100,,,,,,,,
COc1ccc2c(c1)cc(C1CC(c3cc(Br)ccc3O)=NN1)c1nnnn12 (stereo not given),25 to 100,25 to 100,25 to 100,,,,,,,,
CCOC(=O)C(C#N)C(c1cc2ccc(CC)cc2n2nnnc12)P(=O)(OCC)OCC (stereo not given),10 to 25,10 to 25,10 to 25,,,,,,,,
CCOC(=O)C(C#N)C(c1cc2c(OC)cccc2n2nnnc12)P(=O)(OCC)OCC (stereo not given),10,10,10 to 25,,,,,,,,
CCOC(=O)C(C#N)C(c1cc2ccc(C)cc2n2nnnc12)P(=O)(OCC)OCC (stereo not given),10 to 25,10 to 25,10 to 25,,,,,,,,
C[C@@H](n1nnn(-c2ccc(OCC(F)(F)C(F)(F)F)cc2)c1=O)[C@](O)(Cn1cncn1)c1ccccc1,,,,,,,,,,,ED50 (Candida albicans [2]): 0.71 to 2 mg/kg
O=C1/C(=C/c2ccccc2)C(=O)N(c2ccccc2)C(=S)N1/N=C/c1cc2ccccc2n2nnnc12,,,,,,,,,,,MIC (Candida albicans [3]): ≥ 100 µg/mL
Cc1ccc2cc(C3CC(c4cc(Br)ccc4O)=NN3)c3nnnn3c2c1 (stereo not given),25 to 100,25 to 100,25 to 100,,,,,,,,
C[C@@H](n1nnn(-c2ccc(F)cc2)c1=O)[C@](O)(Cn1cncn1)c1ccccc1,,,,,,,,,,,ED50 (Candida albicans [2]): 0.71 to 2 mg/kg
C[C@@H](n1nnn(-c2ccc(OC(F)(F)F)cc2)c1=O)[C@](O)(Cn1cncn1)c1ccccc1,,,,,,,,,,,ED50 (Candida albicans [2]): 0.71 to 2 mg/kg
OC(Cn1cncn1)(Cn1nnnc1CCN1CCN(C(c2ccccc2)c2ccccc2)CC1)c1ccc(F)cc1F (stereo not given),,,,0.5 to 16,0.5 to 16,0.5 to 16,0.5 to 16,0.5 to 16,0.5 to 16,0.5 to 16,
C[C@H](n1nnc(CCN2CCN(c3ccccc3Cl)CC2)n1)[C@](O)(Cn1cncn1)c1ccc(F)cc1F,,,,0.25 to 16,0.25 to 16,0.25 to 16,0.25 to 16,0.25 to 16,0.25 to 16,0.25 to 16,
C[C@H](n1nnc(CCN2CCN(c3ccc(Cl)cc3)CC2)n1)[C@](O)(Cn1cncn1)c1ccc(F)cc1F,,,,0.25 to 16,0.25 to 16,0.25 to 16,0.25 to 16,0.25 to 16,0.25 to 16,0.25 to 16,
COc1ccccc1N1CCN(CCc2nnn(C(C)C(O)(Cn3cncn3)c3ccc(F)cc3F)n2)CC1 (stereo not given),,,,1 to 16,1 to 16,1 to 16,1 to 16,1 to 16,1 to 16,1 to 16,
CC(n1nnnc1CCN1CCN(c2cccc(C(F)(F)F)c2)CC1)C(O)(Cn1cncn1)c1ccc(F)cc1F (stereo not given),,,,0.5 to 16,0.5 to 16,0.5 to 16,0.5 to 16,0.5 to 16,0.5 to 16,0.5 to 16,
CC(n1nnc(CCN2CCN(c3ccc(F)cc3)CC2)n1)C(O)(Cn1cncn1)c1ccc(F)cc1F (stereo not given),,,,1 to 16,1 to 16,1 to 16,1 to 16,1 to 16,1 to 16,1 to 16,
COc1ccc2c(c1)cc(/C=C/C(=O)c1cc(Br)ccc1O)c1nnnn12,25 to 100,25 to 100,25 to 100,,,,,,,,
C[C@H](n1nnc(CCN2CCN(c3ccccc3)CC2)n1)[C@](O)(Cn1cncn1)c1ccc(F)cc1F,,,,0.25 to 16,0.25 to 16,0.25 to 16,0.25 to 16,0.25 to 16,0.25 to 16,0.25 to 16,
OC(Cn1cncn1)(Cn1nnnc1CCN1CCN(c2ccccc2Cl)CC1)c1ccc(F)cc1F (stereo not given),,,,0.5 to 16,0.5 to 16,0.5 to 16,0.5 to 16,0.5 to 16,0.5 to 16,0.5 to 16,
OC(Cn1cncn1)(Cn1nnc(CCN2CCN(c3ccccc3)CC2)n1)c1ccc(F)cc1F (stereo not given),,,,1 to 16,1 to 16,1 to 16,1 to 16,1 to 16,1 to 16,1 to 16,
OC(Cn1cncn1)(Cn1nnc(CCN2CCN(Cc3ccccc3)CC2)n1)c1ccc(F)cc1F (stereo not given),,,,1 to 16,1 to 16,1 to 16,1 to 16,1 to 16,1 to 16,1 to 16,
C[C@@H](n1nnn(-c2ccc(OCC(F)(F)F)cc2)c1=O)[C@](O)(Cn1cncn1)c1ccccc1,,,,,,,,,,,ED50 (Candida albicans [2]): 0.71 to 2 mg/kg
COc1ccccc1N1CCN(CCc2nnn(CC(O)(Cn3cncn3)c3ccc(F)cc3F)n2)CC1 (stereo not given),,,,1 to 16,1 to 16,1 to 16,1 to 16,1 to 16,1 to 16,1 to 16,
Cc1ccc2cc(/C=C3\SC(=S)N(CC(=O)O)C3=O)c3nnnn3c2c1,25 to 50,25 to 50,25 to 50,,,,,,,,
CN(C)c1ccc(/C=C2/C(=O)N(/N=C/c3cc4ccccc4n4nnnc34)C(=S)N(c3ccccc3)C2=O)cc1,,,,,,,,,,,MIC (Candida albicans [3]): ≥ 100 µg/mL
